This passage reports mutagenic call results from PubChem BioAssay AID1259407 (Chemical Carcinogenesis Research Information System (CCRIS), 2018).

The subject of this data set is CCRIS mutagenicity, Ames/micronucleus/aberration tests. Kind of data set: CCRIS mutagenicity studies.
Where [1] appears, read: Test System: AMES SALMONELLA TYPHIMURIUM, Strain/Indicator: TA98, Metabolic Activation: NONE, Method: STANDARD PLATE.
Setting [2] is: Test System: AMES SALMONELLA TYPHIMURIUM, Strain/Indicator: TA100, Metabolic Activation: NONE, Method: STANDARD PLATE.
The mark [3] stands for this setting: Test System: AMES SALMONELLA TYPHIMURIUM, Strain/Indicator: TA98, Metabolic Activation: NONE, Method: PREINCUBATION
The mark [4] stands for this setting: Test System: AMES SALMONELLA TYPHIMURIUM, Strain/Indicator: TA100, Metabolic Activation: NONE, Method: PREINCUBATION
Where [5] appears, read: Test System: AMES SALMONELLA TYPHIMURIUM, Strain/Indicator: TA1535, Metabolic Activation: NONE, Method: STANDARD PLATE.
The mark [6] stands for this setting: Test System: AMES SALMONELLA TYPHIMURIUM, Strain/Indicator: TA1537, Metabolic Activation: NONE, Method: STANDARD PLATE.
Where [7] appears, read: Test System: AMES SALMONELLA TYPHIMURIUM, Strain/Indicator: TA1538, Metabolic Activation: NONE, Method: STANDARD PLATE.

The source made the active and inactive calls. The rule behind the calls is not given here.

For the compound `C[C@H]1C=C(C=O)C(C=O)=C[C@]2(O)CC(C)(C)C[C@H]12`, the mutagenic call is, setting by setting: under setting [1], “active; positive”; under setting [2], “active; positive”; (Test System: AMES SALMONELLA TYPHIMURIUM, Strain/Indicator: TA2637, Metabolic Activation: NONE, Method: STANDARD PLATE) “inactive; negative”.

With `CC(=O)Nc1ccc(S(N)(=O)=O)cc1`, the mutagenic call runs as follows: under setting [3], “inactive; negative”; (Test System: AMES SALMONELLA TYPHIMURIUM, Strain/Indicator: TA98, Metabolic Activation: RAT, LIVER, S-9, AROCLOR 1254, Method: PREINCUBATION) “inactive; negative”; under setting [4], “inactive; negative”; (Test System: AMES SALMONELLA TYPHIMURIUM, Strain/Indicator: TA100, Metabolic Activation: RAT, LIVER, S-9, AROCLOR 1254, Method: PREINCUBATION) “inactive; negative”.

Take `Nc1cccc(N)c1C(=O)O`: the mutagenic call is “inactive; negative” under setting [3]; “active; positive” (Test System: AMES SALMONELLA TYPHIMURIUM, Strain/Indicator: TA98, Metabolic Activation: RAT, LIVER, S-9, PHENOBARBITAL AND 5,6-BENZOFLAVONE, Method: PREINCUBATION); “inactive; negative” under setting [4]; “inactive; negative” (Test System: AMES SALMONELLA TYPHIMURIUM, Strain/Indicator: TA100, Metabolic Activation: RAT, LIVER, S-9, PHENOBARBITAL AND 5,6-BENZOFLAVONE, Method: PREINCUBATION).

Take `CCCCCCCCCCCCCC(=O)O[C@@H]1[C@@H](C)[C@@]2(O)[C@@H](C=C(CO)C[C@]3(O)C(=O)C(C)=C[C@@H]23)[C@@H]2C(C)(C)[C@]12OC(C)=O`: the mutagenic call (End Point: IN VITRO CHROMOSOMAL ABERRATIONS, Test System: CHL/IU CELLS, Metabolic Activation: NONE) was “inactive; negative” and the mutagenic call (End Point: IN VITRO MICRONUCLEUS, Test System: CHL/IU CELLS, Metabolic Activation: NONE) is “inactive; negative”.

On to `O=P(O)(O)Oc1c(Br)cc(Br)cc1-c1cc(Br)cc(Br)c1O`, for which the mutagenic call was “inactive; negative” under setting [1]; “inactive; negative” (Test System: AMES SALMONELLA TYPHIMURIUM, Strain/Indicator: TA98, Metabolic Activation: RAT, LIVER, S-9, KANECHLOR 400, Method: STANDARD PLATE); “inactive; negative” under setting [2]; “inactive; negative” (Test System: AMES SALMONELLA TYPHIMURIUM, Strain/Indicator: TA100, Metabolic Activation: RAT, LIVER, S-9, KANECHLOR 400, Method: STANDARD PLATE); “inactive; negative” under setting [5]; “inactive; negative” (Test System: AMES SALMONELLA TYPHIMURIUM, Strain/Indicator: TA1535, Metabolic Activation: RAT, LIVER, S-9, KANECHLOR 400, Method: STANDARD PLATE). Moreover, the mutagenic call under setting [6] was “inactive; negative”; the mutagenic call (Test System: AMES SALMONELLA TYPHIMURIUM, Strain/Indicator: TA1537, Metabolic Activation: RAT, LIVER, S-9, KANECHLOR 400, Method: STANDARD PLATE) is “inactive; negative”; the mutagenic call under setting [7] was “inactive; negative”; the mutagenic call (Test System: AMES SALMONELLA TYPHIMURIUM, Strain/Indicator: TA1538, Metabolic Activation: RAT, LIVER, S-9, KANECHLOR 400, Method: STANDARD PLATE) was “inactive; negative”.

`CN(C)CCCNc1c2ccccc2nc2ccccc12`: the mutagenic call runs as follows: (Test System: AMES SALMONELLA TYPHIMURIUM, Strain/Indicator: TA98(1,8-DNP6), Metabolic Activation: NONE, Method: STANDARD PLATE) “inactive; negative”; (Test System: AMES SALMONELLA TYPHIMURIUM, Strain/Indicator: TA98(1,8-DNP6), Metabolic Activation: RAT, LIVER, S-9, Method: STANDARD PLATE) “inactive; negative”; (Test System: AMES SALMONELLA TYPHIMURIUM, Strain/Indicator: TA98(NR), Metabolic Activation: NONE, Method: STANDARD PLATE) “inactive; negative”; (Test System: AMES SALMONELLA TYPHIMURIUM, Strain/Indicator: TA98(NR), Metabolic Activation: RAT, LIVER, S-9, Method: STANDARD PLATE) “active; positive”; under setting [1], “inactive; negative”; (Test System: AMES SALMONELLA TYPHIMURIUM, Strain/Indicator: TA98, Metabolic Activation: RAT, LIVER, S-9, Method: STANDARD PLATE) “inactive; negative”. For the same compound, the mutagenic call is “inactive; negative” under setting [2]; “inactive; negative” under setting [5]; “active; positive” under setting [6]; “active; positive” (Test System: AMES SALMONELLA TYPHIMURIUM, Strain/Indicator: TA1537 PKM101, Metabolic Activation: NONE, Method: STANDARD PLATE); “active; positive” under setting [7]; “inactive; negative” (Test System: CHINESE HAMSTER V-79, Strain/Indicator: V-79/6-THIOGUANINE, Metabolic Activation: NONE, Method: STANDARD PLATE). In addition, the mutagenic call (Test System: CHINESE HAMSTER V-79, Strain/Indicator: V-79/OUABAIN, Metabolic Activation: NONE, Method: STANDARD PLATE) was “inactive; negative”; the mutagenic call (Test System: Escherichia coli, Strain/Indicator: CC107 (G6 to G7 frameshifts), Metabolic Activation: None, Method: Modified preincubation) is “active; positive”; the mutagenic call (Test System: Escherichia coli, Strain/Indicator: CC108 (G6 to G5 frameshifts), Metabolic Activation: None, Method: Modified preincubation) was “active; positive”; the mutagenic call (Test System: Escherichia coli, Strain/Indicator: CC109 (CG5 to CG4 frameshifts), Metabolic Activation: None, Method: Modified preincubation) was “active; positive”; the mutagenic call (Test System: Escherichia coli, Strain/Indicator: CC111 (A7 to A6 frameshifts), Metabolic Activation: None, Method: Modified preincubation) was “active; positive”.

Turning to `C[C@]12CC[C@@H]3c4cc(O)c(O)cc4CC[C@H]3[C@@H]1CC[C@@H]2O`, the mutagenic call reads like this: (End Point: In vitro micronucleus, Test System: Human lymphocytes, Metabolic Activation: None) “active; positive only at 10 ug/ml in cytochalasin block micronuclei; no dose response”; (Test System: Ames Salmonella typhimurium, Strain/Indicator: TA98, Metabolic Activation: None, Method: Standard plate) “inactive; negative”; (Test System: Ames Salmonella typhimurium, Strain/Indicator: TA98, Metabolic Activation: Rat, liver, S-9, Method: Standard plate) “inactive; negative”; (Test System: Ames Salmonella typhimurium, Strain/Indicator: TA100, Metabolic Activation: None, Method: Standard plate) “inactive; negative”; (Test System: Ames Salmonella typhimurium, Strain/Indicator: TA100, Metabolic Activation: Rat, liver, S-9, Method: Standard plate) “inactive; negative”.

With `O=[N+]([O-])c1cc2[nH]c3ccc4c(O)cccc4c3c2c2ccccc12`, the mutagenic call was “active; positive” under setting [1]; “active; positive” (Test System: AMES SALMONELLA TYPHIMURIUM, Strain/Indicator: TA98, Metabolic Activation: RAT, LIVER, S-9, 3-METHYLCHOLANTHRENE, Method: STANDARD PLATE); “active; positive” under setting [2]; “active; positive” (Test System: AMES SALMONELLA TYPHIMURIUM, Strain/Indicator: TA100, Metabolic Activation: RAT, LIVER, S-9, 3-METHYLCHOLANTHRENE, Method: STANDARD PLATE).
